# Measurements from ChEMBL document CHEMBL1136678, “Novel indole-based inhibitors of IMPDH: introduction of hydrogen bond acceptors at indole C-3” (Bioorg Med Chem Lett, 2003).
# What was measured:
# [1] = biological target: Inosine-5'-monophosphate dehydrogenase 2 (Homo sapiens, UniProt P12268); test: Inhibition of 5'-inosine monophosphate dehydrogenase type II (IMPDH II)
# CCRF-CEM = test: Inhibition of CEM T-cell proliferation; format: functional, cell-based; conditions: Homo sapiens
# [2] = biological target: Inosine-5'-monophosphate dehydrogenase 1 (Homo sapiens, UniProt P20839); test: Inhibition of 5'-inosine monophosphate dehydrogenase type I (IMPDH I)
# Inosine-5'-monophosphate dehydrogenase 1, sequence (P20839 whole entry): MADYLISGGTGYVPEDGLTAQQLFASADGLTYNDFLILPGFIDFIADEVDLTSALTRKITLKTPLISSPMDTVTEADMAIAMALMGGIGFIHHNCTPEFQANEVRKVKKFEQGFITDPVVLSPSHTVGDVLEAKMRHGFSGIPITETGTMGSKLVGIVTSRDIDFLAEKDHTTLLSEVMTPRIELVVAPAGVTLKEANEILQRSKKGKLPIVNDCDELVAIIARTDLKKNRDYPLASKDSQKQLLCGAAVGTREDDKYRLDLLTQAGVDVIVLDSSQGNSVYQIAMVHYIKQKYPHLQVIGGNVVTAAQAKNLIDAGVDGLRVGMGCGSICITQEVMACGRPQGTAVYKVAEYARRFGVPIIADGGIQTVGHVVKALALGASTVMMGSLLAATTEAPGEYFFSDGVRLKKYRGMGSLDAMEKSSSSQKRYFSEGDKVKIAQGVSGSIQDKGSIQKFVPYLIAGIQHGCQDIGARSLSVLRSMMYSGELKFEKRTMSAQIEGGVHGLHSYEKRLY
SMILES,IC50 [1],IC50 (CCRF-CEM),IC50 [2]
COc1cc2[nH]c(-c3csc4ccccc34)c(C=O)c2cc1-c1cnco1,30 nM,550 nM,160 nM
COc1cc2[nH]c3c(c2cc1-c1cnco1)CCCC(=O)C3,150 nM,–,–
COc1cc2[nH]c(-c3ccccc3)cc2cc1-c1cnco1,500 nM,> 10000 nM,–
CCOC(=O)c1c(-c2ccccc2)[nH]c2cc(OC)c(-c3cnco3)cc12,> 1000 nM,–,–
COc1cc2[nH]c3c(c2cc1-c1cnco1)CC(=O)CC3,290 nM,–,–

# Continued by falling IC50 [1], values first:
IC50 [1],IC50 (CCRF-CEM),IC50 [2],SMILES
600 nM,–,–,COc1cc2[nH]c(Cc3ccccc3)cc2cc1-c1cnco1
500 nM,–,–,COc1cc2[nH]c(-c3csc4ccccc34)cc2cc1-c1cnco1
360 nM,–,–,COc1cc2[nH]c(Cc3ccccc3)c(C=O)c2cc1-c1cnco1
230 nM,–,–,COc1cc2[nH]c(-c3ccccc3)c(C=O)c2cc1-c1cnco1
220 nM,–,–,COc1cc2[nH]c(Cc3ccccc3)c(C#N)c2cc1-c1cnco1
130 nM,–,–,COc1cc2[nH]c(-c3ccccc3)c(C#N)c2cc1-c1cnco1
64 nM,–,–,COc1cc2[nH]c(-c3csc4ccccc34)c(C#N)c2cc1-c1cnco1
